Experimental data taken from publication PMC8694143 (Microbiology Spectrum, 2021).
No end group written: not given here.

What was measured:
panel of 7 MRSA strains = test: Bactericidal activity time course, MRSA panel; format: cell-based, Staphylococcus aureus
Method: Time-dependent inhibition of pathogens was measured using standing bacterial cultures treated with 2× MIC. Overnight cultures were diluted to 10^4 or 10^7 CFU/mL in 2 mL of MH broth supplemented with the appropriate peptide concentration or sterile water as a control. Standing cultures were then incubated at 37°C and 100 μL aliquots were removed at specified time intervals. For the panel of 7 MRSA strains, treatment intervals of 30 min, 4 h, 8 h, and 24 h were used. For MRSA ATCC 33592, ATCC 1683, and S. pseudintermedius SPC002, shorter intervals included 5, 30, 60, 120, 240, and 360 min. The 100-μL aliquots were plated using serial dilutions as necessary on LB agar, and CFU were counted as a measure of bacterial viability after 24 h. To normalize cell viability data, surviving cells in CFU/mL were compared to the initial bacterial inoculum of each strain and then expressed as a percentage of that concentration. All experiments were performed in triplicate with values reported as the mean with standard deviations. Statistical differences in the observed viability of bacteria treated with STIP3-29 were analyzed using a paired two-tailed Student’s t test comparing the pretreatment (0 h) viability to those observed at posttreatment time points using Stata v17.0 software.

[1] = tested on: Mannheimia haemolytica ATCC 33396; test: MIC determination in broth; format: cell-based; conditions: MH broth
Method: (§1) The MICs were measured for bioactive peptides identified from the initial screen. Cation-adjusted Mueller-Hinton (MH) broth was used as the growth medium for MIC determination experiments. Bacterial cultures were diluted to an OD of 5 × 10^−4 (∼10^5 CFU/mL) in 200 μL MH broth mixed with peptides in a 2-fold dilution series arrayed in 96-well plates. Plates were incubated without shaking at 30 or 37°C depending on the organism.

S. scuri = test: MIC determination in broth; format: cell-based; conditions: isolate from the healthy quarter of a dairy cow; MH broth
Method: as §1

Escherichia coli DH10B = test: MIC determination in broth; format: cell-based; conditions: MH broth
Method: as §1

[2] = tested on: Pseudomonas aeruginosa ATCC 27853; test: MIC determination in broth; format: cell-based; conditions: MH broth
Method: as §1

[3] = tested on: S. aureus bovid isolate (RDM-1); test: MIC determination in broth; format: cell-based, Staphylococcus aureus; conditions: clinical isolate, mastitis in a dairy cow; MH broth
Method: as §1

S. epidermidis = test: MIC determination in broth; format: cell-based, Staphylococcus epidermidis; conditions: isolate from the healthy quarter of a dairy cow; MH broth
Method: as §1

M. luteus ATCC 4698 = test: MIC determination in broth; format: cell-based, Micrococcus luteus
[4] = tested on: S. pseudintermedius canine isolate MSSP42; test: MIC determination in broth; format: cell-based, Staphylococcus pseudintermedius; conditions: MH broth
Method: as §1

[5] = tested on: S. pseudintermedius canine isolate MRSP16; test: MIC determination in broth; format: cell-based, Staphylococcus pseudintermedius; conditions: MH broth
Method: as §1

[6] = tested on: S. pseudintermedius canine isolate MRSP24; test: MIC determination in broth; format: cell-based, Staphylococcus pseudintermedius; conditions: MH broth
Method: as §1

[7] = tested on: S. pseudintermedius human isolate SPC001 (MSSP); test: MIC determination in broth; format: cell-based, Staphylococcus pseudintermedius; conditions: MH broth
Method: as §1

[8] = tested on: S. pseudintermedius human isolate SPC020 (MSSR); test: MIC determination in broth; format: cell-based, Staphylococcus pseudintermedius; conditions: MH broth
Method: as §1

[9] = tested on: S. pseudintermedius human isolate SPC002 (MSSP); test: MIC determination in broth; format: cell-based, Staphylococcus pseudintermedius; conditions: MH broth
Method: as §1

[10] = tested on: MRSA ATCC 33592 on 3D EpiDerm skin tissues; test: Three-dimensional NHEK skin model of MRSA infection; format: cell-based, Staphylococcus aureus; conditions: 25 μg/mL (4× MIC), 100 μL apical, 16 h after 4 h colonization, 37°C, 5% CO2
Method: 3D EpiDerm skin tissues (MatTek EPI-200-AFAB; antifungal and antibiotic-free; 9 mm) contained within a plastic insert lined with a permeable 0.4 μm membrane were transferred to 12-well plates containing antibiotic assay medium (600 μL/well). A fresh MRSA ATCC 33592 culture in the log phase of growth was centrifuged at 10,000 rpm for 5 min to harvest bacterial cells before resuspension in sterile PBS to an […] 5 × 10^6 CFU/mL. Tissues were incubated with 100 μL of the bacterial cell suspension (5 × 10^5 CFU) for 4 h at 37°C in a humidified 5% CO2 environment. After 4 h, the bacterial cell suspension was removed and the apical surface of each tissue was washed 3 times with PBS to remove nonadherent bacterial cells. Next, the colonized skin tissues were treated with a 100 μL volume of STIP3-29 at 25 μg/mL. An equal volume of sterile PBS was used for untreated control experiments. Tissues were then incubated at 37°C in a humidified 5% CO2 environment for 16 h. […] The number of MRSA colonies on each plate was counted and an average CFU/mL was determined for treated and untreated samples. […] The statistical differences in colonization were evaluated using an unpaired two-tailed Student’s t test to compare pretreated (control colonization; CC), untreated control (PBS), and STIP3-29 treated groups.

Substance: TVGGLVKWILKTVKKFA-NH2 [STIP3-29]
- Recovery of viable MRSA cells (panel of 7 MRSA strains; 12.5 μg/mL (2× MIC), MH broth, 37°C, 4 h, all 7 MRSA strains, triplicate): less than 1%
- Mode of antibacterial action from viability time courses (panel of 7 MRSA strains; MRSA viability during two time course experiments): bactericidal
- MIC, Mannheimia haemolytica ATCC 33396 [1]: 6.25 µg/mL
- MIC, S. scuri (S. scuri): 3.13 µg/mL
- MIC, Escherichia coli DH10B (Escherichia coli DH10B): 12.5 µg/mL
- MIC, Pseudomonas aeruginosa ATCC 27853 [2]: 50 µg/mL
- MIC, S. aureus bovid isolate (RDM-1) [3]: 6.25 µg/mL
- MIC, S. epidermidis (S. epidermidis): 3.13 µg/mL
- MIC, M. luteus (M. luteus ATCC 4698; cation-adjusted MH broth, ~10^5 CFU/mL, 30°C, 48 h): 1.56 µg/mL
- MIC, M. luteus, molar (M. luteus ATCC 4698; conversion of 1.56 μg/mL): 0.85 µM
- MIC, S. pseudintermedius MSSP42 [4]: 3.13 µg/mL
- MIC, S. pseudintermedius MRSP16 [5]: 3.13 µg/mL
- MIC, S. pseudintermedius MRSP24 [6]: 3.13 µg/mL
- MIC, S. pseudintermedius SPC001 (MSSP) [7]: 3.13 µg/mL
- MIC, S. pseudintermedius SPC020 (MSSR) [8]: 3.13 µg/mL
- MIC, S. pseudintermedius SPC002 (MSSP) [9]: 3.13 µg/mL
- Effect on the MRSA population on colonized NHEK tissue [10]: prevented the expansion of the MRSA population
